Test results published in US11942223B1, “Systems and methods for rapid gene set enrichment analysis” (Immuneering Corporation, priority 2018, dated 2024).

Columns and labels:
[1] = CellTiter-Glo viability, DU-145; assay type: cell-based; settings: human, DU-145 cells; DU-145, 600 nM; read-out: cell viability by CellTiter-Glo
Description: (§1) Viability was determined at the maximum drug concentration measured in a given experiment via CellTiter-Glo® (CTG) per manufacturers recommendations: https://www.promega.com/-/media/files/resources/protocols/technical-bulletins/0/celltiter-glo-luminescent-cell-viability-assay-protocol.pdf?la=en.

[2] = tested on: NCI-H460 (lung cancer) cells; assay: Transwell invasion assay, NCI-H460; assay type: cell-based; settings: NCI-H460, cell line panel, FIG. 9A
Description: (§2) Culture medium was removed when cells reached 80% confluence. Cultures were gently rinsed with PBS to remove all the remaining serum. Serum-free medium was added to the cultures and they were incubated overnight at 37° C. 5% CO2.
(§3) 786-O. NCI-H460, NCI-H226, MDA-MB-231 and DU-145 cells were tested in transwells with 3 μm pores. HCT-116, PC-3, MDA-MB-453 and COLO-205 cells were tested in transwells with 8 μm pores.
(§4) First, the Matrigel® was thawed in an ice bath in a refrigerator (4° C.) overnight. Matrigel® was then diluted into serum-free, cold cell culture media (1:8 dilution). 20 μL of diluted Matrigel®) was added into each well of BD Falcon™ Multiwell 96-well cell culture inserts. Transwell inserts were incubated at 37° C., for at least 4 to 5 hours for gelling. Before use, the transwells were rehydrated by adding 100 μL PBS to the insert and incubated at 37° C., in ambient air for 2 hours.
(§5) Cells were harvested using Trypsin and washed once with serum free medium. Cells were resuspended with serum-free medium. […]
(§6) The insert was transferred back to the lower chamber and 200 μL of the DiTC12(3) fluorescent dye solution was added. […] The invaded/migrated cells were monitored by reading fluorescence at 530/590 nm on a PerkinElmer EnSpire™ plate reader.
(§7) Percent inhibition for compound was calculated using Formula 6. […]

[3] = CellTiter-Glo viability, PC-3; assay type: cell-based; settings: human, PC-3 cells; PC3, 600 nM; read-out: cell viability by CellTiter-Glo
Description: as §1

[4] = CellTiter-Glo viability, 786-O; assay type: cell-based; settings: human, 786-O cells, 600 nM, assay threshold 80%, read-out: cell viability by CellTiter-Glo
Description: as §1

[5] = CellTiter-Glo viability, COLO-205; assay type: cell-based; settings: human, COLO-205 cells; COLO-205, 600 nM; read-out: cell viability by CellTiter-Glo
Description: as §1

[6] = tested on: COLO-205 (colon cancer) cells; assay: Transwell invasion assay, COLO-205; assay type: cell-based; settings: COLO-205, cell line panel, FIG. 9B
Description: as §2, §3, §4, §5, §6, §7

[7] = CellTiter-Glo viability, MDA-MB-453; assay type: cell-based; settings: human, MDA-MB-453 cells; MDA-MB-453, 600 nM; read-out: cell viability by CellTiter-Glo
Description: as §1

[8] = tested on: MDA-MB-453 (breast cancer) cells; assay: Transwell invasion assay, MDA-MB-453; assay type: cell-based; settings: MDA-MB-453, cell line panel, FIG. 9B; low baseline invasiveness
Description: as §2, §3, §4, §5, §6, §7

[9] = CellTiter-Glo viability, MDA-MB-231; assay type: cell-based, human; settings: human, MDA-MB-231 cells; for viability at 10 µM: MDA-MB-231, 10 μM of drug
Description: as §1

[10] = CellTiter-Glo viability, NCI-H460; assay type: cell-based; settings: human, NCI-H460 cells; NCI-H460, 600 nM; read-out: cell viability by CellTiter-Glo
Description: as §1

[11] = tested on: DU-145 (prostate cancer) cells; assay: Transwell invasion assay, DU-145; assay type: cell-based; settings: DU-145, cell line panel, FIG. 9A
Description: as §2, §3, §4, §5, §6, §7

[12] = tested on: NCI-H226 (lung cancer) cells; assay: Transwell invasion assay, NCI-H226; assay type: cell-based; settings: NCI-H226, cell line panel, FIG. 9A
Description: as §2, §3, §4, §5, §6, §7

MDA-MB-231 cells [13] = assay: Transwell ECM-based invasion assay, MDA-MB-231; assay type: cell-based, human; settings: for inhibition of tumor cell invasion: MDA-MB-231, three GSK3 inhibitors, FIG. 7B
Description: To experimentally test the in silico predictions made by Cosiner™ and to pursue an inhibitor of metastasis, an in vitro ECM-based invasion assay was performed. An invasion assay is an in vitro proxy for the process of cells migrating and breaking through the extracellular matrix as would occur in the body during metastasis. All three GSK3A/GSK3B inhibitors tested were effective at inhibiting the invasion of the human triple negative breast cancer cell model MDA-MB-231 cells (FIG. 7B). […] Cell viability was determined at 10 μM by CellTiter-Glo® (CTG). […] At 10 μM doses, off-target effects can confound pharmacologic interpretations not to mention that it is unlikely to be a physiologically feasible dose for mice or humans. The viability at for each of the line as tested with each of these drugs was 76.4% for CHIR-99021 and 80.5% for 6-BIO 10 μM of drug by CTG.
as §2, §3, §4
Cells were harvested using Trypsin and washed once with serum free medium. Cells were resuspended with serum-free medium. The 786-O cell density was adjusted to 2×10^5 cells/mL; the NCI-H460 and NCI-H226 cell density was adjusted to 5×10^6 cells/mL; the MDA-MB-231 and DU-145 cell density was adjusted to 1×10^6 cells/mL; the HCT-116 cell density was adjusted to 5×10^6 cells/mL; the PC-3 cell density to 1×10^6 cell/mL; the MDA-MB-453 cell density was adjusted to 5×10^5 cells/mL; and the COLO-205 cell density was adjusted to 2×10^6 cells/mL.
Cells were pre-treated with compounds, which were dissolved in DMSO and diluted to the desired concentration in culture medium. The pretreatment was performed in Ultra-low attachment multiwell plates. 90 μL cells and 10 μL compound solution were mixed in each well of the plate. The plate was covered with a lid and incubated for 60 minutes. 50 μL of cells was seeded onto each top insert, which was pre-coated with 1:8 diluted Matrigel®. 180 μL of warm (37° C.) culture medium containing 10% FBS was added to the lower chamber of the transwell plate. 200 μL serum-free medium and 20 μL of compound dilution was added to the indicated lower chamber as the negative control. The 96-Multiwell Insert system was transferred to the incubator for 16 hours at 37° C., and 5% CO2. Next, the insert was transferred to a new plate. The lower chambers were centrifuged at 3000 rpm for 5 minutes and then washed twice with PBS.
The insert was transferred back to the lower chamber and 200 μL of the DiTC12(3) fluorescent dye solution was added. The final concentration of DiIC12(3) was 5 μg/mL. Plates were incubated for 30 minutes at 37° C., and 5% CO2. The plates were then washed with PBS twice. The invaded/migrated cells were monitored by reading fluorescence at 530/590 nm on a PerkinElmer EnSpire™ plate reader.
Percent inhibition for compound was calculated using Formula 6.
The positive control was DMSO treated and had medium with 10% FBS (average of 3 wells per cell line) in receiver well. The negative control was DMSO treated with no FBS in the receiver well (average of 3 wells per cell line). […]

[14] = tested on: 786-O (renal cancer) cells; assay: Transwell invasion assay, 786-O; assay type: cell-based; settings: cell line panel, FIG. 9A
Description: as §2, §3, §4, §5, §6, §7

[15] = tested on: PC-3 (prostate cancer) cells; assay: Transwell invasion assay, PC-3; assay type: cell-based; settings: PC-3, cell line panel, FIG. 9A
Description: as §2, §3, §4, §5, §6, §7

[16] = CellTiter-Glo viability, HCT-116; assay type: cell-based; settings: human, HCT-116 cells; HCT-166 (so in the source), 600 nM; read-out: cell viability by CellTiter-Glo
Description: as §1

A549 (lung cancer) cells = assay: Transwell invasion assay, A549; assay type: cell-based; settings: A549, previous experiment, FIG. 9B
Description: as §2, §4
Cells were pre-treated with compounds, which were dissolved in DMSO and diluted to the desired concentration in culture medium. The pretreatment was performed in Ultra-low attachment multiwell plates. 90 μL cells and 10 μL compound solution were mixed in each well of the plate. The plate was covered with a lid and incubated for 60 minutes. […]
as §6, §7

[17] = tested on: HCT-116 (colon cancer) cells; assay: Transwell invasion assay, HCT-116; assay type: cell-based; settings: HCT-116, cell line panel, FIG. 9B; low baseline invasiveness
Description: as §2, §3, §4, §5, §6, §7

[18] = CellTiter-Glo viability, A549; assay type: cell-based; settings: human, A549 cells; A549, 600 nM; read-out: cell viability by CellTiter-Glo
Description: as §1

[19] = CellTiter-Glo viability, NCI-H226; assay type: cell-based; settings: human, NCI-H226 cells; NCI-H226, 600 nM; read-out: cell viability by CellTiter-Glo
Description: as §1

MDA-MB-231 cells [20] = assay: CellTiter-Glo viability, MDA-MB-231; assay type: cell-based, human; settings: MDA-MB-231, 10 μM of drug
Description: as §1

[21] = read-out: cell viability by CellTiter-Glo

O=C1NC(=O)C(c2cnc3ccccn23)=C1c1cn2c3c(cc(F)cc13)CN(C(=O)N1CCCCC1)CC2 [LY-2090314]
viability at 0.6 µM [1]: ~100% | inhibition of invasion [2]: markedly inhibited | viability at 0.6 µM [3]: ~100% | viability at 0.6 µM [4]: 83% | viability at 0.6 µM [5]: ~100% | inhibition of invasion [6]: did not significantly inhibit | viability at 0.6 µM [7]: ~100% | inhibition of invasion [8]: did not significantly inhibit | viability at 0.6 µM ([9]; MDA-MB-231, 600 nM of drug, dose response experiment (FIG. 8), read-out: cell viability by CellTiter-Glo): 93.5% | viability at 0.6 µM ([9]; MDA-MB-231, 600 nM, cell line panel experiment (FIG. 9A)): 95.5% | viability at 10 µM [9, 21]: ~100% | viability at 0.6 µM [10]: ~100% | inhibition of invasion [11]: markedly inhibited | inhibition of invasion [12]: markedly inhibited | IC50 (MDA-MB-231 cells [13]; Homo sapiens, MDA-MB-231, dose response FIG. 8, average of 6 wells, read-out: 50% inhibition of baseline invasion): ~5 nM | inhibition of invasion (MDA-MB-231 cells [13]; MDA-MB-231, cell line panel, FIG. 9A, average of 6 wells): markedly inhibited | dose of maximal inhibition of tumor cell invasion (MDA-MB-231 cells [13]; MDA-MB-231, dose response FIG. 8, average of 6 wells): approximately 24 nM | inhibition of tumor cell invasion (MDA-MB-231 cells [13]): inhibited tumor cell invasion at all concentrations tested | inhibition of invasion [14]: markedly inhibited | inhibition of invasion [15]: markedly inhibited | viability at 0.6 µM [16]: ~97.7% | inhibition of invasion (A549 (lung cancer) cells): did not significantly inhibit | inhibition of invasion [17]: did not significantly inhibit | viability at 0.6 µM [18]: 99.3% | viability at 0.6 µM [19]: ~100%

O=C1Nc2cc(Br)ccc2/C1=C1/Nc2ccccc2/C1=N\O [6-BIO]
cell viability by CellTiter-Glo (MDA-MB-231 cells [20]): 80.5% | inhibition of tumor cell invasion (MDA-MB-231 cells [13]): inhibited tumor cell invasion but only at the higher dose levels tested (e.g., 1-10 μM)

Cc1c[nH]c(-c2cnc(NCCNc3ccc(C#N)cn3)nc2-c2ccc(Cl)cc2Cl)n1 [CHIR-99021]
viability at 10 µM [9, 21]: 76.4% | inhibition of tumor cell invasion (MDA-MB-231 cells [13]): inhibited tumor cell invasion but only at the higher dose levels tested (e.g., 1-10 μM)
